Test results taken from ChEMBL document CHEMBL1201862, “PubChem BioAssay data set” (2004).
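Compound exposure: 48 hours, 5 concentrations, 96-well plates. The concentration for 50% growth inhibition is given as GI50.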 Activity calls are given as the source filed them. Cut-off read from the data, not from the text of the source: active = GI50 up to about 1.1 µM and inactive = higher.

Key:
Assay in all cases: NCI anticancer screen, dose series, 48 h
U-251 = tested on: U-251
SK-MEL-28 = tested on: SK-MEL-28
NCI/ADR-RES = tested on: NCI/ADR-RES
NCI-H226 = tested on: NCI-H226
UACC-62 = tested on: UACC-62
SK-MEL-5 = tested on: SK-MEL-5
HOP-62 = tested on: HOP-62
Hs-578T = tested on: Hs-578T
A498 = tested on: A498
SK-OV-3 = tested on: SK-OV-3
SNB-19 = tested on: SNB-19
SN12C = tested on: SN12C
RPMI-8226 = tested on: RPMI-8226
COLO 205 = tested on: COLO 205
MOLT-4 = tested on: MOLT-4
OVCAR-5 = tested on: OVCAR-5
PC-3 = tested on: PC-3
NCI-H522 = tested on: NCI-H522
786-0 = tested on: 786-0
IGROV-1 = tested on: IGROV-1

Row | Structure (SMILES) | GI50 (U-251) | GI50 (SK-MEL-28) | GI50 (NCI/ADR-RES) | GI50 (NCI-H226) | GI50 (UACC-62) | GI50 (SK-MEL-5) | GI50 (HOP-62) | GI50 (Hs-578T) | GI50 (A498) | GI50 (SK-OV-3) | GI50 (SNB-19) | GI50 (SN12C) | GI50 (RPMI-8226) | GI50 (COLO 205) | GI50 (MOLT-4) | GI50 (OVCAR-5) | GI50 (PC-3) | GI50 (NCI-H522) | GI50 (786-0) | GI50 (IGROV-1)
1 | CCC1C(c2cc(OC)c(OC)c(OC)c2)c2cc3c(cc2OC1N1CCCC1)OCO3 (centres undefined) | 2.56 µM (inactive) | 8.87 µM (inactive) | 1.41 µM (inactive) | 3.08 µM (inactive) | 1.31 µM (inactive) | 0.678 µM (active) | 2.82 µM (inactive) | 1.36 µM (inactive) | 3.15 µM (inactive) | 3.42 µM (inactive) | 2.74 µM (inactive) | 4.36 µM (inactive) | 3.05 µM (inactive) | 1.55 µM (inactive) | 1.95 µM (inactive) | 8.49 µM (inactive) | 1.48 µM (inactive) | 2.29 µM (inactive) | 3.07 µM (inactive) | 2.62 µM (inactive)
2 | CC(C)CCC1(CCN)C(=O)NC(=O)NC1=O | > 100 µM (inactive) | > 100 µM (inactive) | > 100 µM (inactive) | > 100 µM (inactive) | > 100 µM (inactive) | > 100 µM (inactive) | > 100 µM (inactive) | > 100 µM (inactive) | > 100 µM (inactive) | > 100 µM (inactive) | > 100 µM (inactive) | > 100 µM (inactive) | > 100 µM (inactive) | > 100 µM (inactive) | 16.2 µM (inactive) | > 100 µM (inactive) | > 100 µM (inactive) | > 100 µM (inactive) | > 100 µM (inactive) | > 100 µM (inactive)
3 | CCOC(=O)C1=C(C)NC(=O)NC1c1coc2cc(C)cc(C)c2c1=O (centres undefined) | 32.1 µM (inactive) | > 100 µM (inactive) | 27.5 µM (inactive) | > 100 µM (inactive) | 61.5 µM (inactive) | > 51.2 µM (inactive) | 36.8 µM (inactive) | 56.2 µM (inactive) | > 100 µM (inactive) | > 66.5 µM (inactive) | 90.2 µM (inactive) | 58.2 µM (inactive) | 41.7 µM (inactive) | 54.6 µM (inactive) | 27.5 µM (inactive) | 49 µM (inactive) | 48.3 µM (inactive) | 1.68 µM (inactive) | 67.9 µM (inactive) | > 60.1 µM (inactive)
4 | Cc1ccc(S(=O)(=O)N/N=C/C(Br)=C(/Br)C(=O)O)cc1 | 4.22 µM (inactive) | 2.94 µM (inactive) | 3.69 µM (inactive) | 8.55 µM (inactive) | 8.17 µM (inactive) | 11.7 µM (inactive) | 16.2 µM (inactive) | 10.7 µM (inactive) | 16.4 µM (inactive) | 16.4 µM (inactive) | 13.8 µM (inactive) | 9.93 µM (inactive) | 1.66 µM (inactive) | 3.44 µM (inactive) | 0.826 µM (active) | > 19.7 µM (inactive) | 8.89 µM (inactive) | 1.99 µM (inactive) | 3.42 µM (inactive) | 16.1 µM (inactive)
5 | CC(=O)O[C@H]1C(=O)[C@@]2(C)[C@H]([C@H](OC(=O)C3CCCCC3)[C@]3(O)C[C@H](OC(=O)[C@H](O)[C@@H](NC(=O)C4CCCCC4)C4CCCCC4)C(C)=C1C3(C)C)[C@]1(OC(C)=O)CO[C@@H]1C[C@@H]2O | 0.0117 µM (active) | 0.479 µM (active) | 1.07 µM (active) | 0.0311 µM (active) | 0.0163 µM (active) | 0.0147 µM (active) | 0.0222 µM (active) | 0.00962 µM (active) | 0.0902 µM (active) | 0.029 µM (active) | 0.057 µM (active) | 0.0942 µM (active) | 0.0025 µM (active) | 0.00615 µM (active) | 0.0151 µM (active) | 0.0224 µM (active) | 0.016 µM (active) | 0.00658 µM (active) | 0.0171 µM (active) | 0.027 µM (active)
6 | COc1ccc(C2NC(=O)Nc3c2c(=O)oc2c3ccc3ccccc32)cc1 (centres undefined) | 36.7 µM (inactive) | 55.5 µM (inactive) | 69.5 µM (inactive) | 23.4 µM (inactive) | 29.6 µM (inactive) | 71.6 µM (inactive) | 61.4 µM (inactive) | 41.4 µM (inactive) | 31.4 µM (inactive) | > 100 µM (inactive) | 33.2 µM (inactive) | 68.7 µM (inactive) | 43.3 µM (inactive) | > 100 µM (inactive) | 62.8 µM (inactive) | > 100 µM (inactive) | 38.2 µM (inactive) | 53.2 µM (inactive) | 67 µM (inactive) | 50.4 µM (inactive)
7 | COc1ccc(-c2cc(-c3ccc(Nc4ccnc5cc(Cl)ccc45)cc3)[nH]c(=O)c2C#N)c2ccccc12 | 1.87 µM (inactive) | 3.34 µM (inactive) | > 100 µM (inactive) | > 100 µM (inactive) | 19.5 µM (inactive) | 13.1 µM (inactive) | 14.5 µM (inactive) | 2.62 µM (inactive) | 23.3 µM (inactive) | 20.9 µM (inactive) | 3.39 µM (inactive) | 11.4 µM (inactive) | 2.6 µM (inactive) | 2.44 µM (inactive) | 2.13 µM (inactive) | 41.3 µM (inactive) | 19.5 µM (inactive) | 1.79 µM (inactive) | 3.4 µM (inactive) | 5.26 µM (inactive)
8 | OCC(O)CNc1ncnc2ccccc12 (centres undefined) | > 100 µM (inactive) | > 100 µM (inactive) | > 100 µM (inactive) | > 100 µM (inactive) | > 100 µM (inactive) | > 100 µM (inactive) | > 100 µM (inactive) | > 100 µM (inactive) | > 100 µM (inactive) | > 100 µM (inactive) | > 100 µM (inactive) | > 100 µM (inactive) | > 100 µM (inactive) | > 100 µM (inactive) | > 100 µM (inactive) | > 100 µM (inactive) | > 100 µM (inactive) | > 100 µM (inactive) | > 100 µM (inactive) | > 100 µM (inactive)
9 | N#C[C@](CO)(NC(=O)OCc1ccccc1)C(F)F | > 100 µM (inactive) | > 100 µM (inactive) | > 100 µM (inactive) | > 100 µM (inactive) | > 100 µM (inactive) | > 100 µM (inactive) | > 100 µM (inactive) | > 100 µM (inactive) | > 100 µM (inactive) | > 100 µM (inactive) | > 100 µM (inactive) |  | > 100 µM (inactive) | > 100 µM (inactive) | > 100 µM (inactive) | > 100 µM (inactive) | > 100 µM (inactive) | > 100 µM (inactive) | > 100 µM (inactive) | > 100 µM (inactive)
10 | Cc1cccc(NC(=O)c2cccc([N+](=O)[O-])c2O)c1C | 25.3 µM (inactive) | 44.5 µM (inactive) | 16.5 µM (inactive) | 22.1 µM (inactive) | 28 µM (inactive) | 9.62 µM (inactive) | 17.8 µM (inactive) | 43.6 µM (inactive) | 28.5 µM (inactive) | 28.4 µM (inactive) | 18.7 µM (inactive) | 27.4 µM (inactive) | 3.14 µM (inactive) | 18.1 µM (inactive) | 19.4 µM (inactive) | 30.6 µM (inactive) | 20.2 µM (inactive) | 16.8 µM (inactive) | 37.7 µM (inactive) | 26.7 µM (inactive)
